pIC50: −log10 of the molar value.
Target: Recombinant human factor D (Homo sapiens (Human), UniProt P00746)
Assay: biochemical
Format: biochemical
Conditions: Factor D inhibition data using Method 1; substrate Z-Lys-thiobenzyl, fluorescence readout; read-out: IC50

Recombinant human factor D, sequence (P00746 26-253): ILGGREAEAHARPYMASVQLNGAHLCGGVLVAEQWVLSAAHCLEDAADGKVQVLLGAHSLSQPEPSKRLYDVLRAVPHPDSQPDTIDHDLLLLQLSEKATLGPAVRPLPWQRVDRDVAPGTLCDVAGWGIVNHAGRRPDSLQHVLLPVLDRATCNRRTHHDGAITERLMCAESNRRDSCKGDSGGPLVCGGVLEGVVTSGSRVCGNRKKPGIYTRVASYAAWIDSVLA

In order of rising pIC50:
1. CC1(C)C[C@H](O)C[C@@H](NC(=O)[C@@H]2C[C@H]3C[C@H]3N2C(=O)Cn2nc(C(N)=O)c3ccccc32)C1 [Example 108, 1-{2-[(1R,3S,5R)-3-((1S,5S)-5-Hydroxy-3,3-dimethyl-cyclohexylcarbamoyl)-2-aza-bicyclo[3.1.0]hex-2-yl]-2-oxo-ethyl}-1H-indazole-3-carboxylic acid amide]  5.65
2. CC(=O)c1nn(CC(=O)N2[C@H](C(=O)N[C@H]3CCCC(C)(C)C3)C[C@@]3(CO)C[C@@H]23)c2ncccc12 [Example 116, (1R,3S,5S)-2-[2-(3-Acetyl-pyrazolo[3,4-b]pyridin-1-yl)-acetyl]-5-hydroxymethyl-2-aza-bicyclo[3.1.0]hexane-3-carboxylic acid ((S)-3,3-dimethyl-cyclohexyl)-amide]  5.80
3. CC1(C)CCC[C@H](NC(=O)[C@@H]2C[C@@]3(CO)C[C@H]3N2C(=O)Cn2nc(C(N)=O)c3ccccc32)C1 [Example 112, 1-{2-[(1R,3S,5S)-3-((S)-3,3-Dimethyl-cyclohexylcarbamoyl)-5-hydroxymethyl-2-aza-bicyclo[3.1.0]hex-2-yl]-2-oxo-ethyl}-1H-indazole-3-carboxylic acid amide]  6.43
4. CC1(C)CCCC(NC(=O)[C@@H]2C[C@@]3(CO)C[C@H]3N2C(=O)Cn2nc(C(N)=O)c3ccccc32)C1 (stereo partly drawn) [Example 110, 1-{2-[(1R,3S,5S)-3-(3,3-Dimethyl-cyclohexylcarbamoyl)-5-hydroxymethyl-2-aza-bicyclo[3.1.0]hex-2-yl]-2-oxo-thyl}-1H-indazole-3-carboxylic acid amide]  7.32
5. CC1(C)C[C@@H](O)C[C@H](NC(=O)[C@@H]2C[C@H]3C[C@H]3N2C(=O)Cn2nc(C(N)=O)c3ccccc32)C1 [Example 109, 1-{2-[(1R,3S,5R)-3-((1R,5R)-5-Hydroxy-3,3-dimethyl-cyclohexylcarbamoyl)-2-aza-bicyclo[3.1.0]hex-2-yl]-2-oxo-ethyl}-1H-indazole-3-carboxylic acid amide]  7.55
6. CC(=O)c1nn(CC(=O)N2[C@H](C(=O)N[C@@H]3CCCC(C)(C)C3)C[C@@]3(CO)C[C@@H]23)c2ncccc12 [Example 115, (1R,3S,5S)-2-[2-(3-Acetyl-pyrazolo[3,4-b]pyridin-1-yl)-acetyl]-5-hydroxymethyl-2-aza-bicyclo[3.1.0]hexane-3-carboxylic acid ((R)-3,3-dimethyl-cyclohexyl)-amide]  7.66
7. CC1(C)CCC[C@@H](NC(=O)[C@@H]2C[C@@]3(CO)C[C@H]3N2C(=O)Cn2nc(C(N)=O)c3ccccc32)C1 [Example 111, 1-{2-[(1R,3S,5S)-3-((R)-3,3-Dimethyl-cyclohexylcarbamoyl)-5-hydroxymethyl-2-aza-bicyclo[3.1.0]hex-2-yl]-2-oxo-ethyl}-1H-indazole-3-carboxylic acid amide]  8.00

Same assay, conditions: read-out: IC50

In order of falling pIC50:
1. CC(=O)c1nn(CC(=O)N2[C@H](C(=O)N[C@@H]3CCCC(C)(C)C3)C[C@@]3(CO)C[C@@H]23)c2cnccc12 [Example 121, (1R,3S,5S)-2-[2-(3-Acetyl-pyrazolo[3,4-c]pyridin-1-yl)-acetyl]-5-hydroxymethyl-2-aza-bicyclo[3.1.0]hexane-3-carboxylic acid ((R)-3,3-dimethyl-cyclohexyl)-amide]  7.82
2. CO[C@H]1C[C@H](NC(=O)[C@@H]2C[C@H]3C[C@H]3N2C(=O)Cn2nc(C(N)=O)c3ccccc32)CC(C)(C)C1 [Example 106, 1-{2-[(1R,3S,5R)-3-((1R,5R)-5-Methoxy-3,3-dimethyl-cyclohexylcarbamoyl)-2-aza-bicyclo[3.1.0]hex-2-yl]-2-oxo-ethyl}-1H-indazole-3-carboxylic acid amide]  7.74
3. COC1CC(NC(=O)[C@@H]2C[C@H]3C[C@H]3N2C(=O)Cn2nc(C(N)=O)c3ccccc32)CC(C)(C)C1 (stereo partly drawn) [Example 107, 1-{2-[(1R,3S,5R)-3-(cis-5-Methoxy-3,3-dimethyl-cyclohexylcarbamoyl)-2-aza-bicyclo[3.1.0]hex-2-yl]-2-oxo-ethyl}-1H-indazole-3-carboxylic acid amide]  6.33

From patent publication US9487483B2, “Complement pathway modulators and uses thereof” (priority 2012, dated 2016)
